Laboratory results taken from US6441027B1, “Method of regulating the female reproductive system through angiogenesis inhibitors” (Children's Medical Center Corporation, priority 1996, dated 2002).

Tested on: VEGF induced neovascularization
Test: Mouse corneal micropocket model, VEGF pellet
Type: in vivo
Conditions: mouse cornea, n=10/group, p<0.001
Method: To confirm that angiogenesis was being inhibited, AGM-1470 was tested in vivo. A mouse corneal micropocket model was used which was recently developed to model tumor angiogenesis. Pellets of bFGF or VEGF were implanted in the mouse cornea resulting in aggressive neovascularization. AGM-1470 inhibited the amount of bFGF or VEGF induced neovascularization by 47% or 62% respectively (n=10/group p<0.001).

## CO[C@@H]1[C@H](OC(=O)NC(=O)CCl)CC[C@]2(CO2)[C@H]1[C@@]1(C)O[C@@H]1CC=C(C)C [AGM-1470, O-chloroacetylcarbamoyl fumagillol]
  inhibition of VEGF induced neovascularization: 62%
